From patent US20230265151A1, “GIP/GLP1 CO-AGONIST COMPOUNDS” (priority 2020, published 2023)
Read-outs that look alike come from different tables or passages of the source.

Legend:
[1] = biological target: T1, human GLP-1 receptor (hGLP-1R) (Homo sapiens, UniProt P43220); experiment: [125I]-GLP-1 binding, SPA with membranes of HEK293 cells expressing hGLP-1R
T1 construct: expressed in transfected cells; crude membranes

hGIPR = biological target: T2, hGIPR (Homo sapiens, UniProt P48546); experiment: Functional cAMP formation (HTRF) in HEK-293 clonal cells expressing hGIPR, 0.1% bovine casein, without or with 1.0% human serum albumin; format: cell-based; conditions: for Emax: read-out: hGIPR Emax, % ± SEM; for EC50: cAMP, 0.1% bovine casein (no human serum albumin), geometric mean
T2 construct: expressed in transfected cells
T2 sequence (P48546 22-466): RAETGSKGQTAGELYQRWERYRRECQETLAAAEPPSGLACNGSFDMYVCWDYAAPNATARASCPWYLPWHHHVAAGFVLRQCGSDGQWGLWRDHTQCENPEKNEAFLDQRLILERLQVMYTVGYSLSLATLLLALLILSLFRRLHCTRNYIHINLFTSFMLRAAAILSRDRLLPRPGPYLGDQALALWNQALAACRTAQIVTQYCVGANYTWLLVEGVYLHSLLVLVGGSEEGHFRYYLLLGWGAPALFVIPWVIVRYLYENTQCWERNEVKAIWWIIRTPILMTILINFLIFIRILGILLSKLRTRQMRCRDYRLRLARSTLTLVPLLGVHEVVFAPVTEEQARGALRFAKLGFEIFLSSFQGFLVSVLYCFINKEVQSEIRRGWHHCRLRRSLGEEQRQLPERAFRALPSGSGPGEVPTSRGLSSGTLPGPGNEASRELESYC
Procedure, shortened: (§1)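 Cells were stimulated with peptide for 30 min at 37° C, then intracellular cAMP was measured by competitive HTRF (665/620 nm ratio) and converted to nM using a cAMP standard curve. Relative EC50 and Emax came from four-parameter logistic fits of percent maximal response against peptide concentration.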

hGLP-1R = hGLP-1R (Homo sapiens, UniProt P43220); experiment: Functional cAMP formation (HTRF) in HEK-293 clonal cells expressing hGLP-1R, 0.1% bovine casein, without or with 1.0% human serum albumin; format: cell-based; design: expressed in transfected cells; conditions: for Emax: percent of maximal response to GLP-1(7-36)NH2, arithmetic mean; for EC50: cAMP
hGLP-1R, sequence (P43220 24-463): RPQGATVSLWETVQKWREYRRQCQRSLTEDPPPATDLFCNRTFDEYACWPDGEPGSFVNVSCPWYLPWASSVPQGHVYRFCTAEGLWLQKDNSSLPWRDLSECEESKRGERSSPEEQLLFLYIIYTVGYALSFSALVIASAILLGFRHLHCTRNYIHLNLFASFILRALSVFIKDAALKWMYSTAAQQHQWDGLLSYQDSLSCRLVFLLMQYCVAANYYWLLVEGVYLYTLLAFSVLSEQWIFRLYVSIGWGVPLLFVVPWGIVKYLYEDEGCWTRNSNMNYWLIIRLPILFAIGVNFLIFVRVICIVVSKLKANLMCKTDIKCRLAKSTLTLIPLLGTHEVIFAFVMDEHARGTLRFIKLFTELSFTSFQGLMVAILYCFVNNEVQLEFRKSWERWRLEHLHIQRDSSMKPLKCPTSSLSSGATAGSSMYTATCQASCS
Procedure, shortened: as §1

hGCGR = biological target: T3, hGCGR (Homo sapiens, UniProt P47871); experiment: Functional cAMP formation (HTRF) in HEK-293 clonal cells expressing hGCGR, 0.1% bovine casein, without or with 1.0% human serum albumin; format: cell-based
T3 construct: expressed in transfected cells
T3 sequence (P47871 26-477): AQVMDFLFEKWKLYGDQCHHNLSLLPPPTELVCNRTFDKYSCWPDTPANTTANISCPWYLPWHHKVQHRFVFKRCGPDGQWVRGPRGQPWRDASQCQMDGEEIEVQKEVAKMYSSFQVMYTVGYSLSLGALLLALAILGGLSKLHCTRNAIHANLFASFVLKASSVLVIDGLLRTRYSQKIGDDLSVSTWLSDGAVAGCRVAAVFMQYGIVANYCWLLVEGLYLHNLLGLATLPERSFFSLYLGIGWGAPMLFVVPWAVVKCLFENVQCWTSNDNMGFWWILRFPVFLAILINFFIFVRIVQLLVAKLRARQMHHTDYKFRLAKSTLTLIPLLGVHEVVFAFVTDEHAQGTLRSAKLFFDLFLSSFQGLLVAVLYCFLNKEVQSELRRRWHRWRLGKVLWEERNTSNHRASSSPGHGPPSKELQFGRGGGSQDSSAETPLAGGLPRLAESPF
Procedure, shortened: as §1

[2] = biological target: T4, human GIP receptor (hGIPR) (Homo sapiens, UniProt P48546); experiment: [125I]-GIP binding, SPA with membranes of CHO cells expressing hGIPR
T4 construct: expressed in transfected cells; crude membranes
T4 sequence (P48546 22-466): T2 sequence (P48546 22-466)

[3] = human GLP-1R, geometric mean (SEM, n), read-out: Binding Affinity Ki, nM (SEM, n) hGLP-1R
[4] = HEK293, cAMP, 37° C., 0.1% bovine casein and 1.0% human serum albumin, percent of maximal response to GIP(1-42)NH2
[5] = 37° C., read-out: hGIPR EC50, nM (SEM, n)
[6] = HEK293, cAMP, 37° C., 0.1% bovine casein, read-out: hGLP-1R Emax, % ± SEM
[7] = 37° C., 0.1% bovine casein (no human serum albumin), geometric mean, read-out: hGLP-1R EC50, nM (SEM, n)
[8] = 37° C., 0.1% bovine casein and 1.0% human serum albumin, geometric mean (SEM, n), read-out: hGLP-1R EC50, nM (SEM, n)
[9] = cAMP, 37° C., 0.1% bovine casein (no human serum albumin), geometric mean, read-out: hGCGR EC50, nM (SEM, n)
[10] = cAMP, 37° C., 0.1% bovine casein and 1.0% human serum albumin, geometric mean (SEM, n), read-out: hGCGR EC50, nM (SEM, n)
[11] = human GIPR, geometric mean (SEM, n), read-out: Binding Affinity Ki, nM (SEM, n) hGIPR

T1 sequence (P43220 24-463): as the sequence (P43220 24-463) above

Row | SMILES | Ki [1, 3] | Emax (hGIPR; [4]) | EC50 (hGIPR; [5]) | Emax (hGLP-1R; [6]) | EC50 (hGLP-1R; [7]) | EC50 (hGLP-1R; [8]) | EC50 (hGCGR; [9]) | EC50 (hGCGR; [10]) | Ki [2, 11] | other results
1 | CC[C@H](C)[C@H](NC(=O)[C@H](CC(C)C)NC(=O)[C@](C)(Cc1ccc(O)cc1)NC(=O)[C@H](CCCCNC(=O)COCCOCCNC(=O)COCCOCCNC(=O)CC[C@H](NC(=O)CC[C@H](NC(=O)CCCCCCCCCCCCC(=O)O)C(=O)O)C(=O)O)NC(=O)[C@@H](NC(=O)[C@H](Cc1ccccc1)NC(=O)[C@H](CCCN)NC(=O)C(C)(C)NC(=O)[C@H](CCC(N)=O)NC(=O)[C@H](C)NC(=O)[C@H](CCC(N)=O)NC(=O)[C@H](CCCN)NC(=O)[C@H](CC(=O)O)NC(=O)[C@H](CC(C)C)NC(=O)[C@](C)(CC(C)C)NC(=O)[C@@H](NC(=O)C(C)(C)NC(=O)[C@H](Cc1ccncc1)NC(=O)[C@H](CC(=O)O)NC(=O)[C@H](CO)NC(=O)[C@@H](NC(=O)[C@](C)(Cc1ccccc1F)NC(=O)[C@@H](NC(=O)CNC(=O)[C@H](CCC(=O)O)NC(=O)C(C)(C)NC(=O)[C@@H](N)Cc1ccc(O)cc1)[C@@H](C)O)[C@@H](C)O)[C@@H](C)CC)[C@@H](C)CC)C(=O)N[C@@H](CCCCNC(=O)COCCOCCNC(=O)COCCOCCNC(=O)CC[C@H](NC(=O)CC[C@H](NC(=O)CCCCCCCCCCCCC(=O)O)C(=O)O)C(=O)O)C(=O)NCC(=O)NCC(=O)N1CCC[C@H]1C(=O)N[C@@H](CO)C(=O)N[C@@H](CO)C(=O)NCC(=O)N[C@@H](C)C(=O)N1CCC[C@H]1C(=O)N1CCC[C@H]1C(=O)N1CCC[C@H]1C(=O)N[C@@H](CO)C(N)=O [Example 474] | 0.343 nM | 85.6% | 0.0106 nM | 113% | 0.123 nM | 1.1 nM | > 9950 nM | > 9950 nM | 0.0427 nM | –
2 | CC[C@H](C)[C@H](NC(=O)[C@H](CC(C)C)NC(=O)[C@](C)(Cc1ccc(O)cc1)NC(=O)[C@@H](CCC(=O)O)NC(=O)[C@@H](NC(=O)[C@H](Cc1cc(F)cc(F)c1)NC(=O)[C@H](CCC(=O)O)NC(=O)C(C)(C)NC(=O)[C@H](CCC(N)=O)NC(=O)[C@H](C)NC(=O)[C@H](CCCCNC(=O)COCCOCCNC(=O)COCCOCCNC(=O)CC[C@H](NC(=O)CCCCCCCCCCCCC(=O)O)C(=O)O)NC(=O)[C@H](CCCN)NC(=O)[C@H](CC(=O)O)NC(=O)[C@H](CC(C)C)NC(=O)[C@](C)(CC(C)C)NC(=O)[C@@H](NC(=O)[C@H](CO)NC(=O)[C@H](Cc1ccncc1)NC(=O)[C@H](CC(=O)O)NC(=O)[C@H](CO)NC(=O)[C@@H](NC(=O)[C@](C)(Cc1ccccc1F)NC(=O)[C@@H](NC(=O)CNC(=O)[C@H](CCC(=O)O)NC(=O)C(C)(C)NC(=O)[C@@H](N)Cc1ccc(O)cc1)[C@@H](C)O)[C@@H](C)O)[C@@H](C)CC)[C@@H](C)CC)C(=O)N[C@@H](CCC(=O)O)C(=O)NCC(=O)NCC(=O)N[C@@H](CCCCNC(=O)COCCOCCNC(=O)COCCOCCNC(=O)CC[C@H](NC(=O)CCCCCCCCCCCCC(=O)O)C(=O)O)C(=O)N[C@@H](CO)C(=O)N[C@@H](CO)C(=O)NCC(=O)N[C@@H](C)C(=O)N1CCC[C@H]1C(=O)N1CCC[C@H]1C(=O)N1CCC[C@H]1C(=O)N[C@@H](CO)C(N)=O [Example 65] | 1.05 nM | – | – | – | – | – | – | – | 0.121 nM | Emax (hGIPR; HEK293, 0.1% bovine casein and 1.0% human serum albumin, 37° C., percent of maximal response to GIP(1-42)NH2): 93.8 ± 6.73%; Emax (hGIPR; HEK293, percent of maximal response to GIP(1-42)NH2, 37° C., 0.1% bovine casein, arithmetic mean): 95.2 ± 2.93%; EC50 (hGIPR; incubated at 37° C., read-out: hGIPR EC50, nM (SEM, n)): 0.0139 nM; EC50 (hGLP-1R; incubated at 37° C., 0.1% bovine casein (no human serum albumin), geometric mean, read-out: hGLP-1R EC50, nM (SEM, n)): 0.3 nM; EC50 (hGCGR; 0.1% bovine casein and 1.0% human serum albumin, 37° C., geometric mean, read-out: hGCGR EC50, nM (SEM, n)): > 9950 nM; EC50 (hGCGR; cAMP, incubated at 37° C., 0.1% bovine casein (no human serum albumin), geometric mean, read-out: hGCGR EC50, nM (SEM, n)): > 9950 nM
3 | CC[C@H](C)[C@H](NC(=O)[C@H](CC(C)C)NC(=O)[C@](C)(Cc1ccc(O)cc1)NC(=O)[C@H](CCCCNC(=O)CCOCCOCCOCCNC(=O)CC[C@H](NC(=O)CCCCCCCCCOc1ccc(C(=O)O)cc1)C(=O)O)NC(=O)[C@@H](NC(=O)[C@H](Cc1ccccc1)NC(=O)[C@H](CCCN)NC(=O)C(C)(C)NC(=O)[C@H](CCC(N)=O)NC(=O)[C@H](C)NC(=O)[C@H](CCC(N)=O)NC(=O)[C@H](CCCN)NC(=O)[C@H](CC(=O)O)NC(=O)[C@H](CC(C)C)NC(=O)[C@](C)(CC(C)C)NC(=O)[C@@H](NC(=O)C(C)(C)NC(=O)[C@H](Cc1ccncc1)NC(=O)[C@H](CC(=O)O)NC(=O)[C@H](CO)NC(=O)[C@@H](NC(=O)[C@](C)(Cc1ccccc1F)NC(=O)[C@@H](NC(=O)CNC(=O)[C@H](CCC(=O)O)NC(=O)C(C)(C)NC(=O)[C@@H](N)Cc1ccc(O)cc1)[C@@H](C)O)[C@@H](C)O)[C@@H](C)CC)[C@@H](C)CC)C(=O)N[C@@H](CCCCNC(=O)CCOCCOCCOCCNC(=O)CC[C@H](NC(=O)CCCCCCCCCOc1ccc(C(=O)O)cc1)C(=O)O)C(=O)NCC(=O)NCC(=O)N1CCC[C@H]1C(=O)N[C@@H](CO)C(=O)N[C@@H](CO)C(=O)NCC(=O)N[C@@H](C)C(=O)N1CCC[C@H]1C(=O)N1CCC[C@H]1C(=O)N1CCC[C@H]1C(=O)N[C@@H](CO)C(N)=O [Example 462] | – | – | – | – | – | – | – | – | – | Ki [1]: 0.125 nM; EC50 (hGIPR; hGIPR EC50, nM (SEM, n), 37° C.): 0.0128 nM; Emax (hGLP-1R; HEK293, read-out: hGLP-1R Emax, % ± SEM, cAMP, 37° C., 0.1% bovine casein): 113%; EC50 (hGLP-1R; hGLP-1R EC50, nM (SEM, n), 37° C., 0.1% bovine casein (no human serum albumin), geometric mean): 0.189 nM; EC50 (hGCGR; hGCGR EC50, nM (SEM, n), cAMP, 37° C., 0.1% bovine casein (no human serum albumin), geometric mean): > 9950 nM; EC50 (hGCGR; hGCGR EC50, nM (SEM, n), cAMP, 37° C., 0.1% bovine casein and 1.0% human serum albumin, geometric mean (SEM, n)): > 9950 nM; Ki [2]: 0.0102 nM
4 | CCCCCCCCCCCC(=O)N[C@@H](CCC(=O)NCCOCCOCC(=O)NCCOCCOCC(=O)NCCCC[C@H](NC(=O)[C@H](CCCN)NC(=O)[C@H](CC(=O)O)NC(=O)[C@H](CC(C)C)NC(=O)[C@](C)(CC(C)C)NC(=O)[C@@H](NC(=O)C(C)(C)NC(=O)[C@H](CCCCNC(=O)COCCOCCNC(=O)COCCOCCNC(=O)CC[C@H](NC(=O)CCCCCCCCCCC)C(=O)O)NC(=O)[C@H](CC(=O)O)NC(=O)[C@H](CO)NC(=O)[C@@H](NC(=O)[C@](C)(Cc1ccccc1F)NC(=O)[C@@H](NC(=O)CNC(=O)[C@H](CCC(=O)O)NC(=O)C(C)(C)NC(=O)[C@@H](N)Cc1ccc(O)cc1)[C@@H](C)O)[C@@H](C)O)[C@@H](C)CC)C(=O)N[C@@H](C)C(=O)N[C@@H](CCC(N)=O)C(=O)NC(C)(C)C(=O)N[C@@H](CCCN)C(=O)N[C@@H](Cc1ccccc1)C(=O)N[C@H](C(=O)N[C@H](CCC(=O)O)C(=O)N[C@@](C)(Cc1ccc(O)cc1)C(=O)N[C@@H](CC(C)C)C(=O)N[C@H](C(=O)N[C@@H](CCC(=O)O)C(=O)NCC(=O)NCC(=O)N1CCC[C@H]1C(=O)N[C@@H](CO)C(=O)N[C@@H](CO)C(=O)NCC(=O)N[C@@H](C)C(=O)N1CCC[C@H]1C(=O)N1CCC[C@H]1C(=O)N1CCC[C@H]1C(=O)N[C@@H](CO)C(N)=O)[C@@H](C)CC)[C@@H](C)CC)C(=O)O [Example 417] | 0.167 nM | 96.4% | 0.00651 nM | 109% | 0.0675 nM | 2.66 nM | > 9950 nM | > 9950 nM | 0.0214 nM | –
